Assay results published in patent publication US8435790B2, “Methods of modulating lipid concentrations in eukaryotic cells” (The Regents of the University of California, priority 2008, dated 2013).

Key:
Drosophila S2 cells [1] = assay: Lipid-droplet formation in S2 cells, BODIPY staining and microscopy; type: cell-based; conditions: S2 cells incubated with 1 mM oleate for 24 hours
Procedure: Lipid-droplet formation in Drosophila Schneider 2 (S2) cells is an excellent system for functional genomic studies with efficient gene inactivation by RNAi^6. In the exemplified methods below, lipid-droplet formation was induced by incubation with 1 mM oleate for 24 hours. […] BODIPY-stained fluorescent signals corresponded to lipid droplets with a red fluorescent protein mCherry^7 fused with LSD1, which localizes exclusively to the surface of lipid droplets^3 (not shown).
Cell culture. Drosophila S2 cells were cultured in Schneider's Drosophila medium (Invitrogen) supplemented with 10% fetal bovine serum and antibiotics (100 unit/ml penicillin and 100 μg/ml streptomycin) at 25° C. as described^32. RNAi treatment of S2 cells were performed as previously described^10. A segment of pBluescript backbone was used as the template for control RNAi (referred as control RNAi thereafter). Transfection of S2 cells was performed using Cellfectin reagent (Invitrogen). Images of live cells were taken using LSM 510 confocal microscope (Carl Zeiss MicroImaging) with a 63× oil immersion lens.
Image analyses. S2 cells (2.7×10^6 cells/ml) were treated with 1 μg dsRNA in 96-well plates for 3 days, and 1 mM oleic acid was added for 24 h. Cells were fixed in 4% paraformaldehyde/PBS (1 h) and stained with DAPI and BODIPY493/503 in PBS (1 h). […]

Drosophila S2 cells [2] = assay: Cellular triacylglycerol (TG) content of S2 cells; type: cell-based; conditions: S2 cells incubated with 1 mM oleate for 24 hours; means of three experiments, P<0.05
Procedure: FIG. 1A is series of micrographs of S2 cells incubated for 24 hours without (upper) or with (lower) 1 mM oleate. Staining with BODIPY, phase-contrast image, and overlay are shown. FIG. 1B is a graph showing that oleate-loaded cells have an increased triacylglycerol (TG) content. Cells were incubated as in FIG. 1a and their TG (triglyceride) contents were measured. Results are means and s.d. for three experiments; P<0.05. FIG. 1C is a series of micrographs showing that lipid droplet formation occurs in steps. Single cells were followed by four-dimensional confocal time-lapse photography. Representative maximum projections of three-dimensional stacks at the indicated times are shown. Scale bar is 3 μm.
Lipid measurements. Cells were cultured in 6-well plates (16 μg dsRNAs each well) for 3 days, and then 1 mM oleate was added for 24 hours. Cells were lysed in 50 mM Tris-HCl (pH 7.4), 0.25 M sucrose, and samples (250 μg protein) were assayed for lipids. PC was quantified with a colorimetric method^29. TG content was measured from extracted lipids by TLC^30.

## CCCCCCCC/C=C\CCCCCCCC(=O)O [oleate, Oleic acid]
Drosophila S2 cells [1]
  lipid droplet size, number, and overall volume (BODIPY staining): increased
Drosophila S2 cells [2]
  cellular triacylglycerol (TG) content: increased sevenfold
